Reference: publication PMC7504721, “Targeting the Initiator Protease of the Classical Pathway of Complement Using Fragment-Based Drug Discovery” (Molecules, 2020)
Like-named read-outs stand apart in the source and are kept apart here.

Test system: classical pathway
Test: Classical pathway-specific ELISA-based complement inhibition assay (C4b deposition, IgM-coated plate, human serum)
Assay type: biochemical
Conditions: for IC50: non-linear regression; for inhibition of classical pathway (C4b deposition) relative to non-binding control compound: single 500 µM concentration, triplicate, 1% normal human serum, unpaired t-test p < 0.05
Experimental: To carry out classical pathway ELISA-based inhibition assays, IgM was dissolved in coating buffer (100 mM Na2CO3/NaHCO3, pH 9.6) to a final concentration of 3 µg/mL and was dispensed into 96-well plates at 100 µL per well. Mannan was dissolved to 2 µg/mL and lipopolysaccharides (LPS) were dissolved to 10 µg/mL in coating buffer for use in lectin and alternative pathway inhibition assays, respectively. Immobilization was allowed to proceed overnight at 25 °C. The immobilization reagent was then removed, followed by three washes in washing buffer (50 mM Tris pH 8.0, 200 mM NaCl, 0.05% (v/v) Tween-20), and blocked using 100 µL of 1% (w/v) bovine serum albumin in PBS-T for 1 h at 37°C. Blocking buffer was removed and plates were washed three times in washing buffer. Next, 500 µM of each compound, 5% (v/v) DMSO, and 1% (v/v) normal human serum (Innovative Research) (final concentrations) were dissolved in classical/lectin pathway ELISA buffer (20 mM HEPES (pH 7.3), 0.1% (w/v) gelatin, 140 mM NaCl, 2 mM CaCl2, 0.5 mM MgCl2) and added to the IgM-coated plate for 1 h at 37 °C. For the lectin pathway-specific ELISAs shown in Figure 5D, we used C1q-depleted serum from CompTech at 2% (v/v) and thus the classical pathway assays for this analysis were also performed using serum from CompTech at 2% (v/v). For the alternative pathway, 20% (v/v) normal human serum (CompTech) (final concentration) and alternative pathway ELISA buffer (20 mM HEPES, (pH 7.5), 0.1% (w/v) gelatin, 140 mM NaCl, 2 mM CaCl2, 0.5 mM MgCl2) were used in place of classical/lectin pathway ELISA buffer. Plates were then washed three times in wash buffer and each well was filled with 100 µL of α-C4 (HYB 162-02, Santa Cruz Biotechnology) diluted 1:300 for classical and lectin pathway assays and 100 µL of C3b (WM-1, Sigma) diluted 1:300 for alternative pathway assays. Plates were again incubated at 37 °C for 1 h, washed three times, filled with 100 µL of HRP-conjugated goat-α-mouse secondary antibody (diluted 1:3000) (Thermo Scientific, Waltham, MA, USA), and rocked gently for 1 h at 25 °C. After three more washes, 50 µl of substrate (1-step Ultra TMB, Thermo Scientific, Waltham, MA, USA) was added to each well and rocked for 15 min in the dark at 25 °C. The reaction was stopped with 50 µL of 0.16 M sulfuric acid, and the plate was read at 450 nm using an EnSight multimode plate reader (Perkin-Elmer). Each column contained a positive control for full complement activity (5% (v/v) blank DMSO with 1% (v/v) serum) and a negative control for no complement activity (5% (v/v) blank DMSO and no serum). Positive controls (1% (v/v) serum, no inhibitor) were defined as 100% C4b or C3b signal whereas negative controls (no serum) were defined as 0% C4b or C3b signal for each column. Compounds that inhibited complement deposition relative to the control were then evaluated using the same assay setup across a two-fold variable concentration series for each compound (7.8–500 µM). […] All experiments were performed no less than three times.
Statistical analyses were performed using GraphPad Prism version 8. For complement inhibition assays, measures of statistical significance for single-dose experiments were assessed using unpaired Student’s t-tests compared to no inhibitor controls (pathway ELISAs) or non-binding control compounds (classical pathway ELISA). Statistical significance was defined as p < 0.05. Calculation of IC50 values from dose-dependent complement assays were obtained by non-linear regression analysis using a using an inhibitor vs. response model and with 95% confidence intervals reported. For non-linear regression analyses, the top and bottom of each curve were constrained to 100 and 0, respectively.

[1] = dose-response 7.8–500 µM, top and bottom constrained to 100 and 0, read-out: IC50, classical pathway-specific ELISA
[2] = n = 9 (CMP-1611), n = 7 (CMP-1696), read-out: 95% confidence interval of IC50, classical pathway-specific ELISA

SMILES | IC50 [1] [µM] | IC50 [2] [µM] | inhibition of classical pathway (C4b deposition) relative to non-binding control compound
CN(C)c1cc(N2CCCC(N)C2)ncn1 (stereo not drawn) [CMP-1611] | 660 | 560 to 790 | statistically significant inhibitory activity
COCc1nc(-c2ccc(OC3CNC3)cc2)no1 [CMP-1696] | 520 | 410 to 680 | statistically significant inhibitory activity
